Experiments:
Test in all cases: Bliss excess, mean over the matrix (fraction); higher = more synergy
[1] = tested on: HSC-4 (Oral Cavity Carcinoma)
Method in brief: (§1)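 Bliss excess equals the observed combination effect minus the expected value EA + EB − EA·EB, where EA and EB are the effects of each agent alone. Combination Emax is the second-highest inhibition within the matrix. Inhibition was scaled from CellTiter-Glo 2.0 luminescence, with 0 set by vehicle wells and 1 by blank wells, after 72 hours of two-drug dosing of cells plated in 1536-well plates.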

[2] = tested on: Ca9-22 (Head and Neck Carcinoma)
Method in brief: as §1

[3] = tested on: UACC-62 (Melanoma)
Method in brief: as §1

[4] = tested on: D-263MG (Glioblastoma)
Method in brief: as §1

[5] = tested on: OE19 (Esophageal Adenocarcinoma)
Method in brief: as §1

[6] = tested on: SCC-15 (Oral Cavity Carcinoma)
Method in brief: as §1

[7] = tested on: TK10 (Kidney Carcinoma)
Method in brief: as §1

[8] = tested on: EoL-1-cell (Acute Myeloid Leukemia)
Method in brief: as §1

[9] = tested on: Caov-4 (Ovarian Carcinoma)
Method in brief: as §1

[10] = tested on: EW-24 (Ewing's Sarcoma)
Method in brief: as §1

[11] = tested on: YH-13 (Glioblastoma)
Method in brief: as §1

[12] = tested on: RF-48 (B-Cell Non-Hodgkin's Lymphoma)
Method in brief: as §1

[13] = tested on: ACHN (Kidney Carcinoma)
Method in brief: as §1

[14] = tested on: NCI-H727 (Other Solid Carcinomas)
Method in brief: as §1

[15] = tested on: KYSE-450 (Esophageal Squamous Cell Carcinoma)
Method in brief: as §1

[16] = tested on: NB69 (Neuroblastoma)
Method in brief: as §1

[17] = tested on: TGW (Neuroblastoma)
Method in brief: as §1

[18] = tested on: TE-1 (Esophageal Squamous Cell Carcinoma)
Method in brief: as §1

[19] = tested on: AMO-1 (Plasma Cell Myeloma)
Method in brief: as §1

[20] = tested on: KARPAS-299 (T-Cell Non-Hodgkin's Lymphoma)
Method in brief: as §1

Row | SMILES | Bliss excess [1] | Bliss excess [2] | Bliss excess [3] | Bliss excess [4] | Bliss excess [5] | Bliss excess [6] | Bliss excess [7] | Bliss excess [8] | Bliss excess [9] | Bliss excess [10] | Bliss excess [11] | Bliss excess [12] | Bliss excess [13] | Bliss excess [14] | Bliss excess [15] | Bliss excess [16] | Bliss excess [17] | Bliss excess [18] | Bliss excess [19] | Bliss excess [20]
1 | NC1(C(=O)N[C@@H](CCO)c2ccc(Cl)cc2)CCN(c2ncnc3[nH]ccc23)CC1 [Capivasertib] + C[C@@H]1COCCN1C2=NC(=NC(=C2)C3(CC3)[S@](=N)(=O)C)C4=C5C=CNC5=NC=C4 [AZD6738] (first compound max 10 µM, 7x7, partner max 10 µM) | -0.0422 | -0.0386 | 0.0231 | -0.0685 | -0.0619 | -0.027 | -0.0604 | 0.0272 | -0.0249 | -0.0488 | -0.0771 | -0.0888 | -0.0303 | -0.0734 | -0.0423 | -0.0728 | -0.112 | -0.0831 | -0.021 | -0.0163
2 | COc1nnc2ccc(N3CCC(c4ccc(OCCN5CCN(C)C(=O)[C@H]5C)cc4)CC3)nn12 [AZD5153] + Cn1cnc2c(F)c(Nc3ccc(Br)cc3Cl)c(C(=O)NOCCO)cc21 [Selumetinib] (first compound max 1 µM, 7x7, partner max 10 µM) | -0.0246 | 0.0592 | 0.0397 | 0.0205 | -0.02 | 0.032 | 0.0204 | 0.0345 | -0.053 | -0.0748 | -0.0356 | -0.0939 | 0.0033 | -0.0146 | 0.025 | 0.0191 | -0.0392 | 0.0111 | -0.0076 | 0.0528
3 | C=CCn1c(=O)c2cnc(Nc3ccc(N4CCN(C)CC4)cc3)nc2n1-c1cccc(C(C)(C)O)n1 [AZD1775] + C[C@@H]1COCCN1C2=NC(=NC(=C2)C3(CC3)[S@](=N)(=O)C)C4=C5C=CNC5=NC=C4 [AZD6738] (first compound max 1 µM, partner max 10 µM) | -0.0155 | -0.0002 | 0.0163 | -0.0766 | 0.0514 | -0.0216 | -0.0896 | 0.0033 | -0.0268 | -0.0427 | -0.0142 | -0.0098 | -0.0184 | 0.0078 | 0.0809 | 0.0351 | 0.0606 | -0.0395 | -0.0139 | 0.0169
4 | CC1(C)CCC(CN2CCN(c3ccc(C(=O)NS(=O)(=O)c4ccc(NCC5CCOCC5)c([N+](=O)[O-])c4)c(Oc4cnc5[nH]ccc5c4)c3)CC2)=C(c2ccc(Cl)cc2)C1 [Venetoclax] + C[C@@H]1COCCN1C2=NC(=NC(=C2)C3(CC3)[S@](=N)(=O)C)C4=C5C=CNC5=NC=C4 [AZD6738] (first compound max 1 µM, 7x7, partner max 10 µM) | -0.0509 | -0.0019 | -0.0196 | 0.0199 | -0.0691 | -0.06 | -0.102 | 0.0267 | -0.0228 | 0.0218 | -0.0325 | -0.0039 | -0.0445 | -0.0801 | -0.061 | 0.0496 | -0.0202 | -0.0131 | -0.0355 | -0.0328
5 | COc1cccc(OCCCN)c1-c1cc(Nc2cnc(C#N)cn2)n[nH]1 [Prexasertib] + C=CCn1c(=O)c2cnc(Nc3ccc(N4CCN(C)CC4)cc3)nc2n1-c1cccc(C(C)(C)O)n1 [AZD1775] (first compound max 1 µM, partner max 1 µM) | -0.0123 | 0.0833 | -0.0118 | 0.0378 | 0.114 | 0.0227 | 0.0018 | 0.0565 | 0.007 | -0.1 | 0.0439 | 0.0178 | -0.0133 | 0.0061 | 0.219 | 0.0657 | 0.0499 | 0.0112 | 0.047 | -0.0076
6 | CC1(C)CCC(CN2CCN(c3ccc(C(=O)NS(=O)(=O)c4ccc(NCC5CCOCC5)c([N+](=O)[O-])c4)c(Oc4cnc5[nH]ccc5c4)c3)CC2)=C(c2ccc(Cl)cc2)C1 [Venetoclax] + CCN(CCO)CCCOc1ccc2c(Nc3cc(CC(=O)Nc4cccc(F)c4)[nH]n3)ncnc2c1 [AZD2811] (first compound max 1 µM, 7x7, partner max 1 µM) | -0.0694 | 0.0079 | -0.0027 | 0.0431 | -0.0176 | -0.0051 | -0.0927 | 0.0108 | -0.0091 | 0.0194 | -0.0428 | 0.0498 | -0.0204 | -0.0795 | -0.0215 | 0.0179 | -0.011 | 0.0056 | 0.0249 | 0.0871
7 | CC(=O)c1c(C)c2cnc(Nc3ccc(N4CCNCC4)cn3)nc2n(C2CCCC2)c1=O [Palbociclib] + Cn1cnc2c(F)c(Nc3ccc(Br)cc3Cl)c(C(=O)NOCCO)cc21 [Selumetinib] (first compound max 10 µM, 7x7, partner max 10 µM) | -0.0488 | 0.0539 | -0.0359 | -0.0077 | 0.0203 | -0.0721 | 0.0072 | 0.112 | -0.0247 | -0.0617 | 0.0093 | -0.0489 | 0.0146 | -0.0139 | 0.0539 | 0.0829 | 0.0125 | 0.0048 | 0.0844 | 0.0661
8 | Cn1cnc2c(F)c(Nc3ccc(Br)cc3Cl)c(C(=O)NOCCO)cc21 [Selumetinib] + C[C@@H]1COCCN1C2=NC(=NC(=C2)C3(CC3)[S@](=N)(=O)C)C4=C5C=CNC5=NC=C4 [AZD6738] (first compound max 10 µM, 7x7, partner max 10 µM) | 0.0345 | -0.0197 | 0.063 | -0.03 | -0.049 | -0.0142 | -0.0373 | 0.0058 | -0.0221 | -0.0785 | -0.0485 | -0.0651 | -0.0415 | 0.0201 | 0.0046 | -0.0029 | -0.0288 | -0.0229 | -0.0261 | -0.013
9 | Cc1c2c(nn1C)CSCc1cc(n(C)n1)CSc1cc(c3ccccc3c1)OCCCc1c(C(=O)O)n(C)c3c-2c(Cl)ccc13 [AZD5991] + Cc1cc2ncnn2cc1Nc1ncc2c(n1)n(C1CCOCC1)c(=O)n2C [AZD7648] (first compound max 1 µM, 7x7, partner max 10 µM) | -0.0702 | 0.0048 | -0.0534 | 0.0046 | -0.0645 | -0.042 | -0.0327 | -0.0018 | 0.0024 | -0.035 | -0.091 | -0.0115 | -0.0271 | -0.0833 | -0.0321 | -0.0009 | -0.03 | -0.0494 | -0.0215 | -0.0066
10 | Cn1cnc2c(F)c(Nc3ccc(Br)cc3Cl)c(C(=O)NOCCO)cc21 [Selumetinib] + C=CCn1c(=O)c2cnc(Nc3ccc(N4CCN(C)CC4)cc3)nc2n1-c1cccc(C(C)(C)O)n1 [AZD1775] (first compound max 10 µM, partner max 1 µM) | -0.041 | 0.0321 | -0.0006 | -0.0567 | -0.132 | -0.075 | -0.0412 | -0.053 | -0.0097 | -0.0025 | -0.0489 | -0.0372 | -0.0527 | -0.0891 | -0.037 | -0.0004 | -0.0219 | -0.0277 | -0.0108 | 0.0463
11 | Cc1c2c(nn1C)CSCc1cc(n(C)n1)CSc1cc(c3ccccc3c1)OCCCc1c(C(=O)O)n(C)c3c-2c(Cl)ccc13 [AZD5991] + C1CN(CCC1(C(=O)N[C@@H](CCO)C2=CC=C(C=C2)Cl)N)C3=NC=NC4=C3C=CN4 [Capivasertib] (first compound max 1 µM, 7x7, partner max 3 µM) | -0.0327 | -0.0261 | 0.0121 | 0.083 | -0.0273 | 0.0106 | -0.031 | 0.0528 | 0.0354 | 0.0392 | -0.0229 | 0.0285 | 0.0107 | 0.0322 | -0.009 | -0.0071 | 0.0078 | -0.0107 | 0.0178 | 0.0078
12 | NC1(C(=O)N[C@@H](CCO)c2ccc(Cl)cc2)CCN(c2ncnc3[nH]ccc23)CC1 [Capivasertib] + Cn1cnc2c(F)c(Nc3ccc(Br)cc3Cl)c(C(=O)NOCCO)cc21 [Selumetinib] (first compound max 10 µM, 7x7, partner max 10 µM) | -0.0133 | -0.0383 | 0.0562 | 0.0028 | 0.0786 | -0.0334 | 0.0043 | 0.077 | -0.0293 | -0.0223 | 0.0235 | -0.0343 | 0.0379 | -0.0113 | 0.0292 | 0.0278 | -0.104 | 0.0059 | 0.0678 | 0.117
13 | CCN(CCO)CCCOc1ccc2c(Nc3cc(CC(=O)Nc4cccc(F)c4)[nH]n3)ncnc2c1 [AZD2811] + O=C(c1cc(Cc2n[nH]c(=O)c3ccccc23)ccc1F)N1CCN(C(=O)C2CC2)CC1 [Olaparib] (first compound max 1 µM, 7x7, partner max 10 µM) | -0.0347 | 0.0109 | -0.004 | -0.0018 | 0.0454 | -0.0376 | -0.0391 | -0.03 | 0.0034 | 0.0173 | 0.0304 | 0.0181 | 0.0023 | -0.0184 | -0.0135 | -0.0517 | -0.0236 | -0.031 | 0.0193 | 0.0298
14 | CC1(C)CCC(CN2CCN(c3ccc(C(=O)NS(=O)(=O)c4ccc(NCC5CCOCC5)c([N+](=O)[O-])c4)c(Oc4cnc5[nH]ccc5c4)c3)CC2)=C(c2ccc(Cl)cc2)C1 [Venetoclax] + C=CCn1c(=O)c2cnc(Nc3ccc(N4CCN(C)CC4)cc3)nc2n1-c1cccc(C(C)(C)O)n1 [AZD1775] (first compound max 1 µM, partner max 1 µM) | -0.0205 | 0.0384 | 0.0405 | 0.0494 | -0.0932 | -0.0159 | -0.0444 | 0.0156 | 0.0534 | 0.0351 | -0.0085 | 0.0016 | 0.0604 | 0.0475 | -0.0642 | -0.282 | -0.0261 | -0.0667 | 0.0861 | 0.008

— the supplement of paper PMC11061612
